Assay results from ChEMBL document CHEMBL4715758, “Hit-to-Lead Optimization of a Novel Class of Potent, Broad-Spectrum Trypanosomacides” (J Med Chem, 2016).
≈ marks a conversion by molar mass, not a printed value. Calls of active or inactive are those of the source. No cut-off for these calls is given here.

Columns and labels:
[1] = Drug metabolism in human liver microsomes assessed as N-(2-(4-(2,4-difluorophenyl)thiazol-2-yl)ethyl)piperidine-1-carboxamide metabolite formation in presence of NADPH and UDPGA measured after 60 mins by LC-MS analysis; format: ADME, Microsome; details: 1 h
[2] = Metabolic stability in human liver microsome assessed as compound degradation measured over 60 mins in absence of cofactor by LC-MS analysis; format: ADME; details: liver microsomes, read-out: Drug degradation
[3] = Drug metabolism in human liver microsomes assessed as secondary hydroxylation by measuring N-(2-(4-(2,4-difluorophenyl)thiazol-2-yl)ethyl)piperidine-1-carboxamide metabolite formation in presence of NADPH measured after 60 mins by LC-MS analysis; format: ADME, Microsome; details: 1 h
[4] = Metabolic stability in human liver microsomes assessed as degradation half-life measured after 60 mins in presence of NADPH generating system by LC-MS analysis; format: ADME, Microsome; details: read-out: T50
Trypanosoma cruzi [5] = assay: Antitrypanosomal activity against Trypanosoma cruzi Tulahuen strain trypomastigotes infected in rat H9c2 cells incubated for 72 hrs by DRAQ5 DNA dye based imaging analysis; format: functional, organism-based; details: H9c2, 72 h
Trypanosoma cruzi [6] = assay: Antitrypanosomal activity against Trypanosoma cruzi Tulahuen C4 strain amastigotes infected in rat L6 cells measured after 96 hrs by inverted microscopy analysis; format: functional, organism-based; details: Tulahuen C4, L6, 96 h
L6 = assay: Cytotoxicity against rat L6 cells assessed as reduction in cell viability measured after 72 hrs by alamar blue dye based fluorimetry analysis; details: L6, 72 h
Plasmodium falciparum = assay: Antiplasmodial activity against chloroquine and pyrimethamine resistant erythrocytic stage of Plasmodium falciparum K1 strain assessed as reduction in [3H]hypoxanthine incorporation measured after 48 hrs by liquid scintillation counting method; format: functional, organism-based
Leishmania donovani = assay: Antileishmanial activity against Leishmania donovani MHOM/ET/67/L82 amastigotes measured after 72 hrs by alamar blue dye based fluorimetry analysis; format: functional, organism-based; details: MHOM/ET/67/L82, 72 h
Trypanosoma cruzi [7] = assay: Antitrypanosomal activity against Trypanosoma cruzi infected in vero cells assessed as parasite growth inhibition incubated from 24 to 96 hrs by time kill assay; format: functional, organism-based
Vero = assay: Cytotoxicity against African green monkey Vero cells assessed as reduction in cell viability; format: cell-based; details: chlorocebus sabaeus
Trypanosoma cruzi [8] = assay: Antitrypanosomal activity against Trypanosoma cruzi infected in vero cells assessed as reduction in parasite growth inhibition incubated for 96 hrs by time kill assay relative to nifurtimox; format: functional
Trypanosoma cruzi [9] = assay: Inhibition of Trypanosoma cruzi Tulahuen C4 CYP51 expressed in Escherichia coli JM109 using BOMCC as substrate in presence of NADPH by fluorescence assay
[10] = Partition coefficient, log D of compound at pH 7.4 by HPLC; format: physicochemical; details: octanol/water
[11] = Kinetic solubility of compound at pH 2 by nephelometry; format: physicochemical; details: buffer, read-out: Kinetic_solubility
[12] = Protein binding in human plasma by HPLC-MS analysis; format: ADME, cell-free; details: read-out: PPB (converted)
[13] = Intrinsic clearance in human liver microsomes assessed per mg protein measured after 60 mins in presence of NADPH generating system by LC-MS analysis; format: ADME, Microsome; details: read-out: CLH
[14] = Drug metabolism in human liver microsomes assessed as oxidative dealkylation by measuring 2-(2-phenylthiazol-4-yl)-ethanol formation in presence of NADPH measured after 60 mins by LC-MS analysis; format: ADME, Microsome; details: 1 h
[15] = Drug metabolism in human liver microsomes assessed as 2-(2-phenylthiazol-4-yl)-ethanol metabolite formation in presence of NADPH and UDPGA measured after 60 mins by LC-MS analysis; format: ADME, Microsome; details: 1 h
[16] = Drug metabolism in human liver microsomes assessed as hydroxylation by measuring 3-fluoro-N-(2-hydroxy-2-(2-phenylthiazol-4-yl)ethyl)benzamide formation in presence of NADPH measured after 60 mins by LC-MS analysis; format: ADME, Microsome; details: 1 h
[17] = Drug metabolism in human liver microsomes assessed as hydroxylation by measuring 3-fluoro-N-(2-(2-(4-hydroxyphenyl)thiazol-4-yl)ethyl)benzamide formation in presence of NADPH measured after 60 mins by LC-MS analysis; format: ADME, Microsome; details: 1 h
[18] = system: Trypanosoma brucei brucei; assay: Antitrypanosomal activity against Trypanosoma brucei brucei Lister 427 strain blood stream forms incubated for 48 hrs by resazurin dye based fluorescence assay; format: functional, organism-based; details: Lister 427, 48 h
[19] = Selectivity index, ratio of IC50 for cytotoxicity against human HEK293 cells assessed as reduction in cell viability to IC50 for antitrypanosomal activity against Trypanosoma brucei brucei Lister 427 blood stream form; format: toxicity, cell-based; details: read-out: Ratio IC50
[20] = Selectivity index, ratio of IC50 for cytotoxicity against rat H9c2 cells assessed as reduction in cell viability to IC50 for antitrypanosomal against Trypanosoma cruzi Tulahuen trypomastigotes infected in rat H9c2 cells; format: toxicity, cell-based; details: read-out: Ratio IC50
[21] = Metabolic stability in mouse liver microsomes assessed as degradation half-life measured after 60 mins in presence of NADPH generating system by LC-MS analysis; format: ADME, Microsome; details: read-out: T50
[22] = Intrinsic clearance in mouse liver microsomes assessed per mg protein measured after 60 mins in presence of NADPH generating system by LC-MS analysis; format: ADME, Microsome; details: read-out: CLH
[23] = Tmax in Balb/c mouse at 50 mg/kg, po administered via gavage; format: ADME, organism-based; details: in vivo
[24] = Tmax in Balb/c mouse at 50 mg/kg, po administered via gavage in presence of 1-aminobenzotriazole; format: ADME, organism-based; details: in vivo
[25] = Cmax in Balb/c mouse at 50 mg/kg, po administered via gavage; format: ADME, organism-based; set-up: route oral, dose 50 mg/kg; details: in vivo
[26] = Cmax in Balb/c mouse at 50 mg/kg, po administered via gavage in presence of 1-aminobenzotriazole; format: ADME, organism-based; set-up: route oral, dose 50 mg/kg; details: in vivo
[27] = AUClast (0 to t) in Balb/c mouse at 50 mg/kg, po administered via gavage; format: ADME, organism-based; set-up: time 0 - last, route oral, dose 50 mg/kg; details: in vivo
[28] = AUClast (0 to t) in Balb/c mouse at 50 mg/kg, po administered via gavage in presence of 1-aminobenzotriazole; format: ADME, organism-based; set-up: route oral, time 0 - last, dose 50 mg/kg; details: in vivo
[29] = Dose normalized Cmax in Balb/c mouse at 50 mg/kg, po administered via gavage; format: ADME, organism-based; details: in vivo
[30] = Dose normalized Cmax in Balb/c mouse at 50 mg/kg, po administered via gavage in presence of 1-aminobenzotriazole; format: ADME, organism-based; details: in vivo
[31] = Dose normalized AUClast in Balb/c mouse at 50 mg/kg, po administered via gavage; format: ADME, organism-based; details: in vivo
[32] = Dose normalized AUClast in Balb/c mouse at 50 mg/kg, po administered via gavage in presence of 1-aminobenzotriazole; format: ADME, organism-based; details: in vivo
Trypanosoma cruzi [33] = assay: Antitrypanosomal activity against Trypanosoma cruzi Brazil trypomastigotes coexpressing luciferase infected in BALB/c mouse model assessed as reduction in parasite load at 50 mg/kg, po BID administered for 5 days measured after 10 days; format: functional, organism-based; details: time 10.0 day
Trypanosoma cruzi [34] = assay: Antitrypanosomal activity against Trypanosoma cruzi Brazil trypomastigotes coexpressing luciferase infected in BALB/c mouse model assessed as reduction in parasite load at 50 mg/kg, po BID administered for 5 days followed by cyclophosphamide addition 30 days post last dose and measured 10 days post cyclophosphamide addition; format: functional, organism-based; details: time 45.0 day
[35] = Toxicity in Balb/c mouse infected with Trypanosoma cruzi Brazil trypomastigotes coexpressing luciferase assessed as hunched-back posture at 50 mg/kg, po BID administered for 5 days; format: organism-based; details: in vivo, 120 h, time 5 day
[36] = Toxicity in Balb/c mouse infected with Trypanosoma cruzi Brazil trypomastigotes coexpressing luciferase assessed as ruffled fur at 50 mg/kg, po BID administered for 5 days; format: organism-based; details: in vivo, 120 h, time 5 day
[37] = Toxicity in Balb/c mouse infected with Trypanosoma cruzi Brazil trypomastigotes coexpressing luciferase assessed as low resistance to handling at 50 mg/kg, po BID administered for 5 days; format: organism-based; details: in vivo, 120 h, time 5 day
[38] = Metabolic stability in human liver microsomes assessed as half-life measured after 60 mins in presence of NADPH generating system by LC-MS analysis; format: ADME, Microsome
Trypanosoma cruzi [39] = assay: Antitrypanosomal activity against Trypanosoma cruzi infected in vero cells assessed as minimum concentration required for parasite growth inhibition incubated from 24 to 96 hrs by time kill assay; format: functional; details: time 24-96 hrs, read-out: MEC
[40] = Kinetic solubility of compound at pH 6.5 phosphate buffer by nephelometry; format: physicochemical; details: read-out: Kinetic_solubility

Q: Which results are given for `O=C(NCCc1csc(-c2ccccc2)n1)c1cccc(F)c1`?
A: Drug metabolism [1]: Metabolite_Detected; metabolised at 1 h [2]: 14%; Drug metabolism [3]: Metabolite_Detected; half-life [4]: 4 min; IC50 (Trypanosoma cruzi [5]): 500 nM; IC50 (Trypanosoma cruzi [6]): 200 nM; IC50 (L6): 51000 nM; IC50 (Plasmodium falciparum): 41000 nM; IC50 (Leishmania donovani): 10000 nM; IC50 (Trypanosoma cruzi [7]): 400 nM; Activity (Vero): 17 µM; Imax (Trypanosoma cruzi [8]): 106%; inhibition (Trypanosoma cruzi [9]): inactive; logD [10]: 3.6; solubility kinetic [11]: 6 µg/mL (≈ 18.4 µM); fraction unbound [12]: 0.04; microsomal CLint [13]: 484 µL/min/mg; Drug metabolism [14]: Metabolite_Detected; Drug metabolism [15]: Metabolite_Detected; Drug metabolism [16]: Metabolite_Detected; Drug metabolism [17]: Metabolite_Detected

Q: Which half-life [4] does the source give for `O=C(NCCc1csc(-c2ccc(F)cc2F)n1)N1CCCCC1` here?
A: 8 min

Q: And the IC50 [18]?
A: 24 nM

Q: And the IC50 (Trypanosoma cruzi [5])?
A: 20 nM

Q: And the selectivity ratio [19]?
A: 433

Q: What about the selectivity ratio [20] of the same compound?
A: > 3160

Q: And the half-life [21]?
A: < 2 min

Q: And the microsomal CLint [22]?
A: > 1600 µL/min/mg

Q: What about the microsomal CLint [13] of the same compound?
A: 225 µL/min/mg

Q: What about the Tmax [23] of the same compound?
A: 15 min

Q: What about the Tmax [24] of the same compound?
A: 30 min

Q: What about the Cmax [25] of the same compound?
A: 212 ng/mL

Q: What about the Cmax [26] of the same compound?
A: 7090 ng/mL

Q: And the AUC(0-t) [27]?
A: 127 ng·h/mL

Q: What about the AUC(0-t) [28] of the same compound?
A: 14800 ng·h/mL

Q: And the Cmax/dose [29]?
A: 4.3 kg·ng/mL/mg

Q: What about the Cmax/dose [30] of the same compound?
A: 142 kg·ng/mL/mg

Q: What about the AUClast/dose [31] of the same compound?
A: 2.54 ng·h/mL/mg/kg

Q: What about the AUClast/dose [32] of the same compound?
A: 295 ng·h/mL/mg/kg

Q: What about the Activity (Trypanosoma cruzi [33]) of the same compound?
A: Active

Q: What about the Activity (Trypanosoma cruzi [34]) of the same compound?
A: inactive

Q: What about the Activity [35] of the same compound?
A: Toxic

Q: And the Activity [36]?
A: Toxic

Q: And the Activity [37]?
A: Toxic

Q: What about the half-life [38] of the same compound?
A: 5 min

Q: Which IC50 [18] does the source give for `Cc1ccoc1C(=O)NCCc1csc(-c2ccccc2)n1` here?
A: 130 nM

Q: What about the selectivity ratio [19] of the same compound?
A: 666

Q: What about the IC50 (Trypanosoma cruzi [7]) of the same compound?
A: 600 nM

Q: And the minimal effective concentration (Trypanosoma cruzi [39])?
A: 0.6 µM

Q: And the Activity (Vero)?
A: 50 µM

Q: What about the Imax (Trypanosoma cruzi [8]) of the same compound?
A: 104%

Q: And the inhibition (Trypanosoma cruzi [9])?
A: inactive

Q: What about the logD [10] of the same compound?
A: 3.5

Q: What about the solubility kinetic [11] of the same compound?
A: 6 µg/mL (≈ 19.2 µM)

Q: And the solubility kinetic [40]?
A: 6 µg/mL (≈ 19.2 µM)

Q: And the fraction unbound [12]?
A: 0.05
